Assay results reported in patent US20250236642A1, “PHARMACEUTICAL COMPOSITION FOR TREATMENT OR PREVENTION OF ADULT T-CELL LEUKEMIA” (NEC Corporation, priority 2022, published 2025).
Like-named read-outs stand apart in the source and are kept apart here. No end group written: not given here.

How the values were obtained:
HLA-A*02:01 molecule = target: T1, HLA-A*02:01 molecule (Homo sapiens, UniProt P04439, D140Y/D185E/D98H/E176V/E277Q/G131W/G231S/I119V/I121R/I166T/I218V/L300P/L318F/N151K/N90K/P208A/P217A/Q86G/Q94H/R138H/R169H/T345S); test: Binding of peptide to HLA-A*02:01 molecule using cell line T2
T1 construct: using a cell line T2 (purchased from ATCC) expressing an HLA-A*02:01 molecule; host or cells: T2 cell line
Method: Measurement of binding ability of a peptide to an HLA-A*02:01 molecule, which is a product of an HLA-A*02:01 gene, was performed using a cell line T2 (purchased from ATCC) expressing an HLA-A*02:01 molecule.
T2 cells and purified β2m were added to a serial dilution series of a peptide whose binding ability was to be measured, and then the mixture was incubated at 37° C. for four hours. HLA-A*02:01 molecules whose expression level increased in a peptide concentration-dependent manner by this time point were stained using an association-type specific fluorescently labeled monoclonal antibody BB7.2.
Thereafter, the amount of fluorescence per cell was measured with a flow cytometer, and a dissociation constant Kd value was calculated by the method disclosed in the article (Udaka et al., Immunogenetics, 51, 816-828, 2000) by the present inventor.

HLA-A*24:02 molecule = HLA-A*24:02 molecule (Homo sapiens, UniProt P04439, D101N/D140Y/D185E/E176V/E190D/F33S/G103R/G107R/I119L/I121M/I306V/K335N/L105A/L180Q/L300P/N151K/N90K/Q86E/Q94H/R106L/R138H/R89G/T104I/T345S/V100E/W191G/Y123F); test: Binding of peptide to HLA-A*24:02 molecule using C1R-A24 cells
Method: Measurement of binding ability of a peptide to an HLA-A*24:02 molecule, which is a product of an HLA-A*24:02 gene, was performed using C1R-A24 cells expressing an HLA-A*24:02 molecule (Cells created by Professor Masafumi Takiguchi, Kumamoto University, was provided by Assistant Professor Masaki Yasukawa, Ehime University, with permission).
First, the C1R-A24 cells were exposed to acidic conditions at pH 3.3 for 30 seconds to dissociate and remove an endogenous peptide originally binding to an HLA-A*24:02 molecule and light chain β2m commonly associated with an HLA class I molecule. After neutralization, purified β2m was added to the C1R-A24 cells, and the mixture was added to a peptide dilution series and incubated on ice for four hours.
Thereafter, the number of MHC-peps for each C1R-A24 cell (proportional to a fluorescence intensity of the fluorescent antibody) was quantitatively measured using a fluorescence cell analyzer FACScan (Becton-Dickinson).

HLA-A*02:06 molecule = target: T2, HLA-A*02:06 molecule (Homo sapiens, UniProt P04439, D140Y/D185E/D98H/E176V/E277Q/F33Y/G131W/G231S/I119V/I121R/I166T/I218V/L300P/L318F/N151K/N90K/P208A/P217A/Q86G/Q94H/R138H/R169H/T345S); test: Binding of peptide to HLA-A*02:06 molecule using RA2.6 cells
T2 construct: expressed in transfected cells; host or cells: RA2.6 cells (mouse TAP-deficient RMAS with HLA-A*02:06 cDNA)
Method: Measurement of binding ability of a peptide to an HLA-A*02:06 molecule, which is a product of an HLA-A*02:06 gene, was performed using RA2.6 cells (a cell line newly created at Kochi University) obtained by introducing cDNA of the HLA-A*02:06 gene into RMAS, which is a mouse transporter associated with antigen processing (TAP)-deficient cell line.
A fluorescently labeled monoclonal antibody BB7.2 that specifically recognizes a peptide binding type HLA-A*02:06 molecule was added thereto, and the mixture was incubated on ice for 20 minutes to stain the cells.

[1] = Table 2, dissociation constant Kd value (−log Kd value), >−3.0 = no significant binding ability, read-out: Measured value of allele A*02:01 (converted)
[2] = Table 2, dissociation constant Kd value (−log Kd value), >−3.0 = no significant binding ability, read-out: Measured value of allele A*24:02 (converted)
[3] = Table 2, dissociation constant Kd value (−log Kd value), >−3.0 = no significant binding ability, read-out: Measured value of allele A*02:06 (converted)
[4] = Measured value of allele A*24:02, Table 2, dissociation constant Kd value (−log Kd value), >−3.0 = no significant binding ability
[5] = Table 4, Kd value (−log Kd value), smaller than −3 = binding property, read-out: Measured value of allele A*24:02 (converted)

| Sequence | Kd (HLA-A*02:01 molecule; [1]) [µM] | Kd (HLA-A*24:02 molecule; [2]) [µM] | Kd (HLA-A*02:06 molecule; [3]) [µM] | Measured value of allele A*02:06 (HLA-A*02:06 molecule; Table 2, dissociation constant Kd value (−log Kd value), >−3.0 = no significant binding ability) | Kd (HLA-A*24:02 molecule; [5]) [µM] | Measured value of allele A*02:06 (HLA-A*02:06 molecule; Table 4, Kd value (−log Kd value), smaller than −3 = binding property) | Kd (HLA-A*02:01 molecule) [µM] | Kd (HLA-A*24:02 molecule; [4]) [µM] | Kd (HLA-A*02:06 molecule) [µM] |
| --- | --- | --- | --- | --- | --- | --- | --- | --- | --- |
| ALAPPTAQL [compound 6] | 0.265 | 4.69 | 0.392 |  |  |  |  |  |  |
| ALLAPAVLL [compound 7] | 0.216 | 1.09 | 1.43 |  |  |  |  |  |  |
| ALPAPHLTL [compound 18] |  |  |  |  |  |  | 1.02 | 0.185 | 3.03 |
| ALPKIRARV [compound 12] | 2.19 | 0.66 | 16.6 |  |  |  |  |  |  |
| ALQFLIPRL [compound 22] |  |  |  |  |  |  | 1.26 | 10.9 | 1.45 |
| ALQPPCPNL [compound 31] |  |  |  |  |  |  | 7.44 | 4.94 | 23.1 |
| ALRPAPALL [compound 26] | 0.774 | 0.397 | > 427 | >−3.37 |  |  |  |  |  |
| AQAPPTAQL [compound 5] |  |  |  |  |  |  | 0.961 | 1.77 | 1.42 |
| ATAPPTAQL [compound 25] | 10.1 | 29.2 | 0.684 |  |  |  |  |  |  |
| CIDEHQWQL [compound 28] | 14 | 332 | 5.62 |  |  |  |  |  |  |
| CLDEHQWQL [compound 9] | 0.216 | 1.36 | 0.474 |  |  |  |  |  |  |
| CMIVHQGTI [compound 36] | > 1000 | 2.91 | 42.4 |  |  |  |  |  |  |
| CTDEHQWQL [compound 39] | 9.07 | > 1000 | 0.16 |  | > 1000 |  |  |  |  |
| EAIDGYITL [compound 47] | > 1000 | 2.91 | 18.9 |  |  |  |  |  |  |
| FSNDFGQSL [compound 35] | 126 | > 1000 | 19.3 |  | > 1000 |  |  |  |  |
| HMAKVIEFL [compound 38] | 2.06 | 0.923 | > 1000 |  |  |  |  |  |  |

Second part, led by results:

| Kd (HLA-A*02:01 molecule; [1]) [µM] | Kd (HLA-A*24:02 molecule; [2]) [µM] | Kd (HLA-A*02:06 molecule; [3]) [µM] | Measured value of allele A*02:06 (HLA-A*02:06 molecule; Table 2, dissociation constant Kd value (−log Kd value), >−3.0 = no significant binding ability) | Kd (HLA-A*24:02 molecule; [5]) [µM] | Measured value of allele A*02:06 (HLA-A*02:06 molecule; Table 4, Kd value (−log Kd value), smaller than −3 = binding property) | Sequence | Kd (HLA-A*02:01 molecule) [µM] | Kd (HLA-A*24:02 molecule; [4]) [µM] | Kd (HLA-A*02:06 molecule) [µM] |
| --- | --- | --- | --- | --- | --- | --- | --- | --- | --- |
| > 1000 | > 1000 | 82.1 |  | > 1000 |  | AQISAYRTC [compound 50] |  |  |  |
| > 1000 | > 1000 | > 1000 |  | > 1000 |  | ARHSTIPLV [compound 77] |  |  |  |
| 83.1 | > 1000 | > 1000 |  | > 1000 | >−3 | ATGDCSSFI [compound 59] |  |  |  |
| > 1000 | 3.82 | > 1000 |  |  |  | AYRTCWIFS [compound 49] |  |  |  |
| > 1000 | 80.3 | > 1000 |  |  |  | CDLSSFEFF [compound 58] |  |  |  |
| > 1000 | > 1000 | 426 |  | > 1000 |  | ETLQFIDSM [compound 53] |  |  |  |
| > 1000 | 19.9 | > 1000 |  |  |  | FIDSDSSSW [compound 57] |  |  |  |
| > 1000 | > 1000 | > 1000 |  | > 1000 |  | GILSDHQQS [compound 74] |  |  |  |
| > 1000 | 23.4 | > 1000 |  |  |  | GRVMQIDGV [compound 68] |  |  |  |
| > 1000 | > 1000 | > 1000 |  | > 1000 |  | GSPDEFSND [compound 72] |  |  |  |
| > 1000 | > 1000 | 218 |  | > 1000 |  | GTHLDAGTV [compound 51] |  |  |  |
| > 1000 | 0.301 | > 1000 |  |  |  | GYITCERPF [compound 65] |  |  |  |
| > 1000 | > 1000 | > 1000 |  | > 1000 |  | GYITLGKPH [compound 80] |  |  |  |
| > 1000 | 68.4 | > 1000 |  |  |  | HMTSSERPF [compound 64] |  |  |  |
